Results: US9404081B2, “Pyruvate kinase activators for use in therapy” (AGIOS PHARMACEUTICALS, INC., priority 2011, dated 2016)

Key:
Type in all cases: biochemical
[1] = molecular target: PKR R532W (Homo sapiens, UniProt P30613, R532W); assay: PKR R532W Single Point Percent Activation Assay; settings: read-out: Act, % 532W
Procedure: PKR R532W Single Point Percent Activation Assay
(§1) A compound described herein was diluted with DMSO and tested at 1 μM concentration. The enzyme was diluted in 1× Buffer: (100 mM KCl, 50 mM Tris 7.5, 5 mM MgCl2, 1 mM DTT, 0.03% BSA). 2 μL of compound solution was first added into wells, and then 180 μL of enzyme solution was added. Assays were assembled except for ADP, and plates were stored for 60 minutes at RT. 20 μL ADP was added to start the assay and assay output was evaluated using OD340 at SpectraMax. The assay was run at room temperature.
Final concentration: PKR R532W (100 ng/well), Tris pH 7.5 (50 mM), KCl (100 mM), MgCl2 (5 mM), ADP (0.36 mM), PEP (0.1 mM), NADH (180 μM), LDH (0.5 units, Sigma 59023), DTT (1 mM) and BSA (0.03%).

[2] = molecular target: PKR R510Q (Homo sapiens, UniProt P30613, R510Q); assay: PKR R510Q Single Point Percent Activation Assay; settings: read-out: Act. % 510Q
PKR R510Q, sequence (P30613 whole entry R510Q): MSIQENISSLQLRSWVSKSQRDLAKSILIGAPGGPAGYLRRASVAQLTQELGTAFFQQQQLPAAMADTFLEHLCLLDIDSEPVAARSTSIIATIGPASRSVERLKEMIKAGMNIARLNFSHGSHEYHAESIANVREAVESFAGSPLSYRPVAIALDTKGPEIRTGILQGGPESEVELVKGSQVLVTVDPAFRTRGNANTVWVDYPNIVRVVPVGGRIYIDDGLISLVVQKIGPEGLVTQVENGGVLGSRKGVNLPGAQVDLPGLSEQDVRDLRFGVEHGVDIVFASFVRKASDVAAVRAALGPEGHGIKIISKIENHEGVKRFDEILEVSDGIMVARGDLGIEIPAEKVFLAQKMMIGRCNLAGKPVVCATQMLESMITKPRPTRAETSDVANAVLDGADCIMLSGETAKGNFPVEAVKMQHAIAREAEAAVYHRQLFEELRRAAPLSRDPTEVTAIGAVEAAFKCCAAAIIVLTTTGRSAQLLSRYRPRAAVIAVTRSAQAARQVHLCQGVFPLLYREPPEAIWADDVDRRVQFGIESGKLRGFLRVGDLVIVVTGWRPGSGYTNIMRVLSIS
Procedure: PKR R510Q Single Point Percent Activation Assay
as §1
Final concentration: PKR R510Q (40 ng/well), Tris pH 7.5 (50 mM), KCl (100 mM), MgCl2 (5 mM), ADP (0.2 mM), PEP (0.11 mM), NADH (180 μM), LDH (0.5 units, Sigma 59023), DTT (1 mM) and BSA (0.03%).

[3] = molecular target: PKR T384W (Homo sapiens, UniProt P30613, T384W); assay: PKR T384W Single Point Percent Activation Assay; settings: read-out: Act. % 384W
PKR T384W, sequence (P30613 whole entry T384W): as the sequence (P30613 whole entry R510Q) above, with T384W, Q510R counted along it
Procedure: PKR T384W Single Point Percent Activation Assay
as §1, with “180 μL enzyme solution” for “180 μL of enzyme solution”
Final concentration: PKR T384W soluble (300 ng/well), Tris pH 7.5 (50 mM), KCl (100 mM), MgCl2 (5 mM), ADP (0.08 mM), PEP (0.23 mM), NADH (180 μM), LDH (0.5 units, Sigma 59023), DTT (1 mM) and BSA (0.03%).

[4] = molecular target: PKR wt (Homo sapiens, UniProt P30613); assay: PKR WT Single Point Percent Activation Assay
PKR wt, sequence (P30613 whole entry): as the sequence (P30613 whole entry R510Q) above, with Q510R counted along it
Procedure: PKR WT Single Point Percent Activation Assay
as §1
Final concentration: PKR wt (100 ng/well), Tris pH 7.5 (50 mM), KCl (100 mM), MgCl2 (5 mM), ADP (0.48 mM), PEP (0.15 mM), NADH (180 μM), LDH (0.5 units, Sigma 59023), DTT (1 mM) and BSA (0.03%).

PKR R532W, sequence (P30613 whole entry R532W): as the sequence (P30613 whole entry R510Q) above, with Q510R, R532W counted along it

| SMILES | activation at 1 µM [1] [%] | activation at 1 µM [2] [%] | activation at 1 µM [3] [%] | activation at 1 µM [4] [%] |
| --- | --- | --- | --- | --- |
| O=C1CN(Cc2cc(F)cc(F)c2)CCN1C(=O)c1ccc(NS(=O)(=O)c2cccc3cccnc23)cc1 | 101 to 500 | 1 to 100 | 101 to 500 | 101 to 500 |
| C[C@@H]1CN(Cc2ccccc2F)CCN1C(=O)c1ccc(NS(=O)(=O)c2cccc3cccnc23)cc1 | 101 to 500 | 101 to 500 | 101 to 500 | 101 to 500 |
| O=C(c1ccc(NS(=O)(=O)c2cccc3cccnc23)cc1)N1C2CCC1CN(CC1CC1)C2 | 101 to 500 | 1 to 100 | 101 to 500 | 101 to 500 |
| CC(C)OC(=O)N1CCN(C(=O)c2ccc(NS(=O)(=O)c3cccc4cccnc34)cc2)[C@@H](C)C1 | 101 to 500 | 101 to 500 | 1 to 100 | 1 to 100 |
| C[C@@H]1CN(CC2CCCC2)CCN1C(=O)c1ccc(NS(=O)(=O)c2cccc3cccnc23)cc1 | 1 to 100 | 1 to 100 | 101 to 500 | 1 to 100 |
| CC1CN(Cc2ccc(Cl)c(F)c2)CC(C)N1C(=O)c1ccc(NS(=O)(=O)c2cccc3cccnc23)cc1 (centres unmarked) | 1 to 100 | 101 to 500 | 101 to 500 | 101 to 500 |
| C[C@H]1CN(CC2CCOC2)CCN1C(=O)c1ccc(NS(=O)(=O)c2cccc3cccnc23)cc1Cl (some centres unmarked) | 101 to 500 | 1 to 100 | 101 to 500 | 1 to 100 |
| CCOC(=O)N1CCN(C(=O)c2ccc(NS(=O)(=O)c3cccc4cccnc34)cc2)c2ccccc21 | 101 to 500 | 101 to 500 | 1 to 100 | 101 to 500 |
| O=C1CN(C(=O)c2ccc(NS(=O)(=O)c3cccc4cccnc34)cc2)CCN1CC1CC1 | 1 to 100 | 1 to 100 | 101 to 500 | 101 to 500 |
| C[C@@H]1CN(CC2CCCO2)CCN1C(=O)c1ccc(NS(=O)(=O)c2cccc3cccnc23)cc1 (some centres unmarked) | 101 to 500 | 101 to 500 | 1 to 100 | 101 to 500 |
| CC(c1ccc(F)cc1)N1CCN(C(=O)c2ccc(NS(=O)(=O)c3cccc4cccnc34)cc2)[C@H](C)C1 (some centres unmarked) | 101 to 500 | 101 to 500 | 101 to 500 | 101 to 500 |
| C[C@H]1CN(Cc2cc(F)cc(F)c2)CCN1C(=O)c1ccc(NS(=O)(=O)c2cccc3cccnc23)cc1 | 1 to 100 | 101 to 500 | 101 to 500 | 101 to 500 |
| C[C@@H]1CN(Cc2ccc(F)cc2)CCN1C(=O)c1ccc(NS(=O)(=O)c2cccc3cccnc23)cc1 | 101 to 500 | 1 to 100 | 101 to 500 | 101 to 500 |
| CC1CN(Cc2c(F)cc(F)cc2F)CC(C)N1C(=O)c1ccc(NS(=O)(=O)c2cccc3cccnc23)cc1 (centres unmarked) | 101 to 500 | 101 to 500 | 1 to 100 | 101 to 500 |
| C[C@@H]1CN(CC2CC2)CCN1C(=O)c1ccc(NS(=O)(=O)c2cccc3cccnc23)cc1 | 1 to 100 | 101 to 500 | 101 to 500 | 101 to 500 |
| CC(c1ccccc1F)N1CCN(C(=O)c2ccc(NS(=O)(=O)c3cccc4cccnc34)cc2)[C@H](C)C1 (some centres unmarked) | 1 to 100 | 1 to 100 | 1 to 100 | 1 to 100 |
| CC1CN(Cc2c(F)ccc(F)c2F)CC(C)N1C(=O)c1ccc(NS(=O)(=O)c2cccc3cccnc23)cc1 (centres unmarked) | 101 to 500 | 1 to 100 | 1 to 100 | 1 to 100 |
| C[C@@H]1CN(C(=O)OC2CCCCC2)CCN1C(=O)c1ccc(NS(=O)(=O)c2cccc3cccnc23)cc1 | 1 to 100 | 1 to 100 | 1 to 100 | 1 to 100 |

| SMILES | activation at 1 µM [1] [%] | activation at 1 µM [2] [%] | activation at 1 µM [3] [%] | activation at 1 µM [4] [%] |
| --- | --- | --- | --- | --- |
| CC(C)[C@H]1CN(Cc2cc(F)cc(F)c2)CCN1C(=O)c1ccc(NS(=O)(=O)c2cccc3cccnc23)cc1 | 1 to 100 | 1 to 100 | 101 to 500 | 1 to 100 |
| C[C@@H]1CN(Cc2cc(F)cc(F)c2)CCN1C(=O)c1ccc(NS(=O)(=O)c2cccc3cccnc23)cc1 | 1 to 100 | 1 to 100 | 1 to 100 | 1 to 100 |
| C[C@@H]1CN(C(=O)OCCC2CCCCC2)CCN1C(=O)c1ccc(NS(=O)(=O)c2cccc3cccnc23)cc1 | 1 to 100 | 1 to 100 | 1 to 100 | 1 to 100 |
| CC(c1c(F)cc(F)cc1F)N1CCN(C(=O)c2ccc(NS(=O)(=O)c3cccc4cccnc34)cc2)[C@H](C)C1 (some centres unmarked) | 101 to 500 | 1 to 100 | 101 to 500 | 101 to 500 |
| CC1CN(CC2CCCCC2)CC(C)N1C(=O)c1ccc(NS(=O)(=O)c2cccc3cccnc23)cc1 (centres unmarked) | 101 to 500 | 101 to 500 | 101 to 500 | 101 to 500 |
| C[C@@H]1CN(C(=O)O[C@@H]2CCOC2)CCN1C(=O)c1ccc(NS(=O)(=O)c2cccc3cccnc23)cc1 | 101 to 500 | 1 to 100 | 1 to 100 | 101 to 500 |
| C[C@H]1CN(CC2CCC2)CCN1C(=O)c1ccc(NS(=O)(=O)c2cccc3cccnc23)cc1 | 101 to 500 | 101 to 500 | 101 to 500 | 101 to 500 |
| CC(c1c(F)ccc(F)c1F)N1CCN(C(=O)c2ccc(NS(=O)(=O)c3cccc4cccnc34)cc2)[C@@H](C)C1 (some centres unmarked) | 101 to 500 | 1 to 100 | 101 to 500 | 1 to 100 |
| CC(c1c(F)ccc(F)c1F)N1CCN(C(=O)c2ccc(NS(=O)(=O)c3cccc4cccnc34)cc2)[C@H](C)C1 (some centres unmarked) | 101 to 500 | 1 to 100 | 101 to 500 | 101 to 500 |
| CC(C)[C@H]1CN(C(C)c2ccc(F)cc2)CCN1C(=O)c1ccc(NS(=O)(=O)c2cccc3cccnc23)cc1 (some centres unmarked) | 101 to 500 | 1 to 100 | 101 to 500 | 101 to 500 |
| C[C@@H]1CN(C(=O)OC2CCCC2)CCN1C(=O)c1ccc(NS(=O)(=O)c2cccc3cccnc23)cc1 | 101 to 500 | 101 to 500 | 101 to 500 | 101 to 500 |
| C[C@H]1CN(CC2CCCCC2)CCN1C(=O)c1ccc(NS(=O)(=O)c2cccc3cccnc23)cc1 | 101 to 500 | 1 to 100 | 1 to 100 | 1 to 100 |
| O=C(c1ccc(NS(=O)(=O)c2cccc3cccnc23)cc1)N1CCN(Cc2ccc(F)cc2)C[C@@H]1c1ccccc1 | 1 to 100 | 1 to 100 | 1 to 100 | 1 to 100 |
| CC(c1ccc(F)cc1F)N1CCN(C(=O)c2ccc(NS(=O)(=O)c3cccc4cccnc34)cc2)[C@H](C)C1 (some centres unmarked) | 1 to 100 | 1 to 100 | 1 to 100 | 101 to 500 |
| CC(C)COC(=O)N1[C@H](C)CN(C(=O)c2ccc(NS(=O)(=O)c3cccc4cccnc34)cc2)C[C@@H]1C | 1 to 100 | 101 to 500 | 101 to 500 | 101 to 500 |
| O=C(c1ccc(NS(=O)(=O)c2cccc3cccnc23)cc1)N1CCN(Cc2ccc(F)cc2)c2ccccc21 | 1 to 100 | 1 to 100 | 1 to 100 | 1 to 100 |
| O=C(c1ccc(NS(=O)(=O)c2cccc3cccnc23)cc1)N1CCN(Cc2cc(F)cc(F)c2)C[C@@H]1c1ccccc1 | 1 to 100 | 101 to 500 | 1 to 100 | 1 to 100 |
